Measurements from patent US10610509B2, “Combinations of prostaglandins and nitric oxide donors” (NICOX S.A., priority 2014, dated 2020).

Key:
[1] = tested on: ocular hypertensive New Zealand White (NZW) rabbits; assay: Intraocular pressure (IOP) lowering activity in ocular hypertensive NZW rabbits (hypertonic saline injection); format: in vivo; details: versus vehicle and versus basal IOP, mean±standard error, compound (12) 0.3%, travoprost 0.004% topical, hypertonic saline (5%) intravitreal
Protocol: Intraocular Pressure (IOP) Lowering Activity in Ocular Hypertensive New Zealand White (NZW) Rabbits
The Intraocular pressure (IOP) lowering activity of the combination of compound (12) (0.3%) and travoprost (0.004%) was assessed in ocular hypertensive rabbits.
Adult male NZW rabbits weighting 1.8-2.0 Kg were used in the experiments.
NZW rabbits were injected with 0.1 ml of hypertonic saline (5%) into the vitreous humor of both eyes. IOP was measured using a Tono-Pen AVIA Vet® at different time points (30, 60, 120 and 240 min) following hypertonic saline injection as well as before topical drug application (basal).
Travoprost (0.004%) or vehicle (5% cremophor-EL; 0.3% DMSO; 0.2 mg/ml BAC in PBS pH 6.0) were topically administered 15 min before hypertonic saline injection.
Compound (12) (0.3%) or vehicle (5% cremophor-EL; 0.3% DMSO; 0.2 mg/ml BAC in PBS pH 6.0) were topically administered immediately after hypertonic saline injection. Eyes were randomly assigned to different treatment groups.
One drop of 0.4% oxybuprocaine hydrochloride (Novesine, Sandoz) was instilled in each eye immediately before each set of ocular pressure measurements.
The ocular hypotensive effects (at […] following topical administration) of travoprost, compound (12) and the combination of compound (12) and travoprost are reported in table 2.
The results reported in table 2 are expressed as IOP change (at 30, 60, 120 and 300 minutes following topical administration) versus vehicle and versus IOP at basal (mean±standard error).

[2] = tested on: ocular normotensive New Zealand White (NZW) rabbits; assay: Intraocular pressure (IOP) lowering activity in ocular normotensive NZW rabbits; format: in vivo; details: versus vehicle and versus basal IOP, mean±standard error, compound (12) 0.1%, travoprost 0.004% eye drops
Protocol: Intraocular Pressure (IOP) Lowering Activity in Ocular Normotensive New Zealand White (NZW) Rabbits
The Intraocular pressure (IOP) lowering activity of the combination of compound (12) (0.1%) and travoprost (0.004%) was assessed in ocular normotensive rabbits.
Adults male NZW rabbits weighting 1.8-2.0 Kg were used in the experiments.
IOP was measured using a pneumatonometer 30 CLASSIC™ before topical application (basal) and at different time points (30, 60, 120, 180, 240 and 300 min) thereafter. Travoprost (0.004%) or vehicle (5% cremophor-EL; 0.3% DMSO; 0.2 mg/ml BAC in PBS pH 6.0) were topically administered 5 minutes prior to compound (12) (0.1%) or vehicle (same as above) as eye drops into the conjunctiva pocket. Eyes were randomly assigned to different treatment groups. One drop of 0.4% oxybuprocaine hydrochloride (Novesine, Sandoz) was instilled in each eye immediately before each set of ocular pressure measurements.
Results are reported in the table in which the ocular hypotensive activity of the combination, of compound (12) and of travoprost are expressed as IOP change (at 30, 60, 120 and 300 minutes following topical administration) versus vehicle and versus IOP at basal (mean±standard error).

[3] = 30 minutes after topical administration
[4] = 60 minutes after topical administration
[5] = 120 minutes after topical administration
[6] = 180 minutes after topical administration
[7] = 300 minutes after topical administration

In the case of O=C(CCC[C@@H](CO[N+](=O)[O-])O[N+](=O)[O-])O[C@@H]1CO[C@H]2[C@@H]1OC[C@H]2O [Compound (12), (S)-((3R,3aR,6R,6aR)-6-hydroxyhexahydrofuro[3,2-b]furan-3-yl) 5,6-bis(nitrooxy)hexanoate], the IOP change ([1]; 30 minutes) was −2.4 ± 0.6 mmHg, the IOP change ([1]; 60 minutes) was −7.7 ± 0.5 mmHg and the IOP change ([1]; 120 minutes) was −6.4 ± 0.5 mmHg. The IOP change ([1]; 240 minutes) was −1.8 ± 0.6 mmHg, the IOP change [2, 3] was −1.4 ± 0.6 mmHg and the IOP change [2, 4] was −2.1 ± 0.4 mmHg. It also gave an IOP change [2, 5] of −0.3 ± 0.3 mmHg, an IOP change [2, 6] of 0.1 ± 0.5 mmHg and an IOP change [2, 7] of 1.1 ± 0.8 mmHg.

Molecule CC(C)OC(=O)CCC/C=C\C[C@@H]1[C@@H](/C=C/[C@@H](O)COc2cccc(C(F)(F)F)c2)[C@H](O)C[C@@H]1O [Travoprost, 5-heptenoic acid, 7-[(1R,2R,3R,5S)-3,5-dihydroxy-2-[(1E,3R)-3-hydroxy-4-[3-(trifluoromethyl)phenoxy]-1-buten-1-yl]cyclopentyl]-, 1-methylethyl ester, (5Z)-] has an IOP change ([1]; 30 minutes) of −2.4 ± 0.5 mmHg, an IOP change ([1]; 60 minutes) of −5.0 ± 0.8 mmHg and an IOP change ([1]; 120 minutes) of −5.1 ± 0.7 mmHg. For the same molecule, the IOP change ([1]; 240 minutes) was −1.7 ± 0.4 mmHg, the IOP change [2, 3] was −1.6 ± 1.6 mmHg and the IOP change [2, 4] was −0.9 ± 1.0 mmHg. The IOP change [2, 5] was −1.1 ± 1.2 mmHg, the IOP change [2, 6] was −0.8 ± 0.4 mmHg and the IOP change [2, 7] was −0.6 ± 0.1 mmHg.
